Measured values as given in ChEMBL document CHEMBL5120866, “Design and Synthesis of Novel Celastrol Derivatives as Potential Anticancer Agents against Gastric Cancer Cells” (J Nat Prod, 2022).
Calls of active or inactive are those of the source. The rule behind the calls is not given here.

Key:
[1] = Toxicity in athymic BALB/c nude mouse assessed as effect on heart at 1.5 mg/kg, ip measured after 21 days by H and E staining based histopathological analysis; type: organism-based; details: in vivo, 504 h, time 21 day
BGC-823 [2] = experiment: Induction of apoptosis in human BGC-823 cells assessed as viable cells at 0.6 uM incubated for 24 hrs by annexin-V-FITC and PI staining based flow cytometry analysis (reference value: 96.3%); type: functional; details: read-out: Activity
BGC-823 [3] = experiment: Induction of cell cycle arrest in human BGC-823 cells assessed as accumulation of cells at G0/G1 phase at 0.3 uM incubated for 24 hrs by PI staining based flow cytometry method (reference value: 50.66%); type: functional
BGC-823 [4] = experiment: Induction of cell cycle arrest in human BGC-823 cells assessed as accumulation of cells at S phase at 0.3 uM incubated for 24 hrs by PI staining based flow cytometry method (reference value: 26.01%); type: functional
BGC-823 [5] = experiment: Induction of apoptosis in human BGC-823 cells assessed as increase in number of apoptotic cells at 0.15 to 0.6 uM incubated for 24 hrs by Hoechst 33342 staining based flourescence microscopy method; type: functional, cell-based; details: dose 0.15-0.6 µM
BGC-823 [6] = experiment: Antitumor activity against human BGC-823 cells xenografted in athymic BALB/c nude mouse assessed as increase in cell necrosis at 1.5 mg/kg, ip measured after 21 days by H and E staining based analysis; type: functional, organism-based; details: time 21.0 day
HeLa = experiment: Antiproliferative activity against human HeLa cells assessed as cell growth inhibition incubated for 48 hrs by MTT assay; type: functional, cell-based
BGC-823 [7] = experiment: Induction of ROS generation in human BGC-823 cells assessed as increase in intracellular ROS level incubated for 24 hrs by DCFH-DA staining based fluorescence microscopic analysis; type: functional, cell-based; details: dose 0.3-0.6 µM, DDE = dose-dependent effect
HCT-116 = experiment: Antiproliferative activity against human HCT-116 cells assessed as cell growth inhibition incubated for 48 hrs by MTT assay; type: functional, cell-based; details: HCT-116, 48 h
[8] = Toxicity in athymic BALB/c nude mouse assessed as effect on kidney at 1.5 mg/kg, ip measured after 21 days by H and E staining based histopathological analysis; type: organism-based; details: in vivo, 504 h, time 21 day
BGC-823 [9] = experiment: Induction of cell cycle arrest in human BGC-823 cells assessed as accumulation of cells at G2/M phase at 0.15 uM incubated for 24 hrs by PI staining based flow cytometry method (reference value: 22.86%); type: functional
BGC-823 [10] = experiment: Induction of apoptosis in human BGC-823 cells assessed as necrotic cells at 0.6 uM incubated for 24 hrs by annexin-V-FITC and PI staining based flow cytometry analysis (reference value: 0.6%); type: functional
BGC-823 [11] = experiment: Induction of apoptosis in human BGC-823 cells assessed as early apoptotic cells at 0.6 uM incubated for 24 hrs by annexin-V-FITC and PI staining based flow cytometry analysis (reference value: 2.4%); type: functional
BGC-823 [12] = experiment: Induction of mitochondrial dysfunction in human BGC-823 cells assessed as […] by measuring reduction in red fluorescence at 0.15 to 0.6 uM incubated for 24 hrs by inverted fluorescent microscopic analysis; type: functional, cell-based; details: dose 0.15-0.6 µM
BGC-823 [13] = experiment: Induction of cell cycle arrest in human BGC-823 cells assessed as accumulation of cells at G0/G1 phase at 0.6 uM incubated for 24 hrs by PI staining based flow cytometry method (reference value: 50.66%); type: functional
MCF7 = experiment: Antiproliferative activity against human MCF7 cells assessed as cell growth inhibition incubated for 48 hrs by MTT assay; type: functional, cell-based; details: MCF7, 48 h
BGC-823 [14] = experiment: Induction of JNK phosphorylation in human BGC-823 cells at 0.15 to 0.6 uM incubated for 24 hrs by Western blot analysis; type: functional, cell-based; details: dose 0.15-0.6 µM
[15] = Toxicity in athymic BALB/c nude mouse assessed as effect on lung at 1.5 mg/kg, ip measured after 21 days by H and E staining based histopathological analysis; type: organism-based; details: in vivo, 504 h, time 21 day
BGC-823 [16] = experiment: Induction of apoptosis in human BGC-823 cells assessed as increase in cleaved PARP expression at 0.15 to 0.6 uM incubated for 24 hrs by Western blot analysis; type: functional, cell-based; details: dose 0.15-0.6 µM
BGC-823 [17] = experiment: Induction of cell cycle arrest in human BGC-823 cells assessed as accumulation of cells at G2/M phase at 0.6 uM incubated for 24 hrs by PI staining based flow cytometry method (reference value: 22.86%); type: functional
BGC-823 [18] = experiment: Induction of cell cycle arrest in human BGC-823 cells assessed as accumulation of cells at G0/G1 phase at 0.15 uM incubated for 24 hrs by PI staining based flow cytometry method (reference value: 50.66%); type: functional
BGC-823 [19] = experiment: Induction of apoptosis in human BGC-823 cells assessed as viable cells at 0.3 uM incubated for 24 hrs by annexin-V-FITC and PI staining based flow cytometry analysis (reference value: 96.3%); type: functional; details: read-out: Activity
BGC-823 [20] = experiment: Induction of apoptosis in human BGC-823 cells assessed as late apoptotic cells at 0.15 uM incubated for 24 hrs by annexin-V-FITC and PI staining based flow cytometry analysis (reference value: 0.6%); type: functional
BGC-823 [21] = experiment: Induction of apoptosis in human BGC-823 cells assessed as necrotic cells at 0.3 uM incubated for 24 hrs by annexin-V-FITC and PI staining based flow cytometry analysis (reference value: 0.6%); type: functional
BGC-823 [22] = experiment: Induction of apoptosis in human BGC-823 cells assessed as reduction in total number of cells at 0.15 to 0.6 uM incubated for 24 hrs by Hoechst 33342 staining based flourescence microscopy method; type: functional, cell-based; details: dose 0.15-0.6 µM
[23] = Toxicity in athymic BALB/c nude mouse assessed as effect on spleen at 1.5 mg/kg, ip measured after 21 days by H and E staining based histopathological analysis; type: organism-based; details: in vivo, 504 h, time 21 day
[24] = Toxicity in athymic BALB/c nude mouse assessed as change in body weight at 1.5 mg/kg, ip measured every 2 days for 21 days; type: organism-based; details: in vivo, 504 h, time 21 day
BGC-823 [25] = experiment: Antitumor activity against human BGC-823 cells xenografted in athymic BALB/c nude mouse assessed increase in ROS level in tumor tissue by measuring increase in red fluorescence at 1.5 mg/kg, ip measured after 21 days by DHE staining based fluorescence microscopic analysis; type: functional, organism-based; details: time 21.0 day
BGC-823 [26] = experiment: Induction of apoptosis in human BGC-823 cells assessed as late apoptotic cells at 0.6 uM incubated for 24 hrs by annexin-V-FITC and PI staining based flow cytometry analysis (reference value: 0.6%); type: functional
BGC-823 [27] = experiment: Induction of apoptosis in human BGC-823 cells assessed as early apoptotic cells at 0.3 uM incubated for 24 hrs by annexin-V-FITC and PI staining based flow cytometry analysis (reference value: 2.4%); type: functional
BGC-823 [28] = experiment: Induction of mitochondrial dysfunction in human BGC-823 cells assessed as […] by measuring increase in green fluorescence at 0.15 to 0.6 uM incubated for 24 hrs by inverted fluorescent microscopic analysis; type: functional, cell-based; details: dose 0.15-0.6 µM
BGC-823 [29] = experiment: Upregulation of Bcl-2 family proteins in human BGC-823 cells at 0.15 to 0.6 uM incubated for 24 hrs by Western blot analysis; type: functional, cell-based; details: dose 0.15-0.6 µM
BGC-823 [30] = experiment: Antiproliferative activity against human BGC-823 cells assessed as cell growth inhibition at 0.5 uM incubated for 48 hrs by MTT assay relative to control; type: functional

**Q.** Which Activity [1] does the source give for `CCOC(=O)c1cnn(CCCOC(=O)[C@]2(C)CC[C@]3(C)CC[C@]4(C)C5=CC=C6C(=CC(=O)C(O)=C6C)[C@]5(C)CC[C@@]4(C)[C@@H]3C2)c1` here?
**A.** Non-Toxic

**Q.** What about the viability at 0.6 µM (BGC-823 [2]) of the same molecule?
**A.** 50.9%

**Q.** What about the Activity (BGC-823 [3]) of the same molecule?
**A.** 46.1%

**Q.** And the Activity (BGC-823 [4])?
**A.** 23.91%

**Q.** What about the Activity (BGC-823 [5]) of the same molecule?
**A.** Active

**Q.** And the Activity (BGC-823 [6])?
**A.** Active

**Q.** And the IC50 (HeLa)?
**A.** 480 nM

**Q.** What about the Activity (BGC-823 [7]) of the same molecule?
**A.** Dde

**Q.** What about the IC50 (HCT-116) of the same molecule?
**A.** 410 nM

**Q.** And the Activity [8]?
**A.** Non-Toxic

**Q.** And the Activity (BGC-823 [9])?
**A.** 23.89%

**Q.** What about the Activity (BGC-823 [10]) of the same molecule?
**A.** 1.5%

**Q.** And the Activity (BGC-823 [11])?
**A.** 26%

**Q.** What about the Activity (BGC-823 [12]) of the same molecule?
**A.** Active

**Q.** What about the Activity (BGC-823 [13]) of the same molecule?
**A.** 37.39%

**Q.** And the IC50 (MCF7)?
**A.** 390 nM

**Q.** What about the Activity (BGC-823 [14]) of the same molecule?
**A.** Active

**Q.** What about the Activity [15] of the same molecule?
**A.** Non-Toxic

**Q.** What about the Activity (BGC-823 [16]) of the same molecule?
**A.** Active

**Q.** What about the Activity (BGC-823 [17]) of the same molecule?
**A.** 34.73%

**Q.** What about the Activity (BGC-823 [18]) of the same molecule?
**A.** 48.17%

**Q.** What about the viability at 0.3 µM (BGC-823 [19]) of the same molecule?
**A.** 78.2%

**Q.** What about the Activity (BGC-823 [20]) of the same molecule?
**A.** 0.5%

**Q.** What about the Activity (BGC-823 [21]) of the same molecule?
**A.** 0.4%

**Q.** What about the Activity (BGC-823 [22]) of the same molecule?
**A.** Active

**Q.** What about the Activity [23] of the same molecule?
**A.** Non-Toxic

**Q.** And the Activity [24]?
**A.** Non-Toxic

**Q.** And the Activity (BGC-823 [25])?
**A.** Active

**Q.** And the Activity (BGC-823 [26])?
**A.** 21.7%

**Q.** What about the Activity (BGC-823 [27]) of the same molecule?
**A.** 16.5%

**Q.** What about the Activity (BGC-823 [28]) of the same molecule?
**A.** Active

**Q.** And the Activity (BGC-823 [29])?
**A.** Active

**Q.** And the inhibition at 0.5 µM (BGC-823 [30])?
**A.** > 50%
